Experimental data as given in ChEMBL document CHEMBL4033774, “Class I HDAC Inhibitors: Potential New Epigenetic Therapeutics for Alcohol Use Disorder (AUD)” (J Med Chem, 2018).

Columns and labels:
Histone deacetylase 1 [1] = target: T1, Histone deacetylase 1 (Homo sapiens, UniProt Q13547); assay: Inhibition of recombinant full length human C-terminal FLAG/His-tagged HDAC1 expressed in baculovirus infected sf9 cells preincubated for 3 hrs followed by fluorophore conjugated MAZ1600 substrate addition measured every 5 mins by fluorescence assay
Histone deacetylase 2 [2] = target: T2, Histone deacetylase 2 (Homo sapiens, UniProt Q92769); assay: Inhibition of human full length C-terminal His/FLAG-tagged HDAC2 expressed in baculovirus infected Sf9 cells preincubated for 3 hrs followed by fluorophore conjugated MAZ1600 substrate addition measured every 5 mins by fluorescence assay
[3] = target: T3, Histone deacetylase 3/Nuclear receptor corepressor 2 (HDAC3/NCoR2) (Homo sapiens, UniProt O15379); assay: Inhibition of human full length C-terminal His-tagged HDAC3/N-terminal GST-tagged human NCOR2 (395 to 489 residues) co-expressed in baculovirus infected Sf9 insect cells preincubated for 3 hrs followed by fluorophore conjugated MAZ1600 substrate addition measured every 5 mins by fluorescence assay
Histone deacetylase 1 [4] = target: T1, Histone deacetylase 1; assay: Inhibition of human full length C-terminal His/FLAG-tagged HDAC1 expressed in baculovirus infected Sf9 insect cells after 1 hr in presence of acetylated lysine substrate by fluorescence assay
Homo sapiens = species on record: Homo sapiens; assay: Selectivity ratio of IC50 for human full length C-terminal His/FLAG-tagged HDAC1 expressed in baculovirus infected Sf9 insect cells to IC50 for human full length C-terminal His-tagged HDAC2 expressed in baculovirus infected Sf9 insect cells
Histone deacetylase 2 [5] = target: T2, Histone deacetylase 2; assay: Inhibition of human full length C-terminal His-tagged HDAC2 expressed in baculovirus infected Sf9 insect cells after 1 hr in presence of acetylated lysine substrate by fluorescence assay
[6] = target: T3, Histone deacetylase 3/Nuclear receptor corepressor 2 (HDAC3/NCoR2); assay: Inhibition of human full length C-terminal His-tagged HDAC3/N-terminal GST-tagged human NCOR2 co-expressed in baculovirus infected Sf9 insect cells after 1 hr in presence of acetylated lysine substrate by fluorescence assay

T1 sequence (Q13547 whole entry): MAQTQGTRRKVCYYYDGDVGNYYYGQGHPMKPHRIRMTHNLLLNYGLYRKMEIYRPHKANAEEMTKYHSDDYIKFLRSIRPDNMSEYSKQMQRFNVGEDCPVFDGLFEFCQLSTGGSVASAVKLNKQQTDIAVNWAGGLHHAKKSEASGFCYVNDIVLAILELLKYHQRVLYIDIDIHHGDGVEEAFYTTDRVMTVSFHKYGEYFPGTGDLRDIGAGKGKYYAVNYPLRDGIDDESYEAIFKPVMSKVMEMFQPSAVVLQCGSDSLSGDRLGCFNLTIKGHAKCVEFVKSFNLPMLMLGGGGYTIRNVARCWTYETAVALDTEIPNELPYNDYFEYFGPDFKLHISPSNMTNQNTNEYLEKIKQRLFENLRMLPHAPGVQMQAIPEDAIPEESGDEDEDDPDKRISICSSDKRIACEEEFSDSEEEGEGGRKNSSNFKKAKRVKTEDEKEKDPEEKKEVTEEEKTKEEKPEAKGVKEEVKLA
T3 sequence (O15379 whole entry, the tested form may be a part): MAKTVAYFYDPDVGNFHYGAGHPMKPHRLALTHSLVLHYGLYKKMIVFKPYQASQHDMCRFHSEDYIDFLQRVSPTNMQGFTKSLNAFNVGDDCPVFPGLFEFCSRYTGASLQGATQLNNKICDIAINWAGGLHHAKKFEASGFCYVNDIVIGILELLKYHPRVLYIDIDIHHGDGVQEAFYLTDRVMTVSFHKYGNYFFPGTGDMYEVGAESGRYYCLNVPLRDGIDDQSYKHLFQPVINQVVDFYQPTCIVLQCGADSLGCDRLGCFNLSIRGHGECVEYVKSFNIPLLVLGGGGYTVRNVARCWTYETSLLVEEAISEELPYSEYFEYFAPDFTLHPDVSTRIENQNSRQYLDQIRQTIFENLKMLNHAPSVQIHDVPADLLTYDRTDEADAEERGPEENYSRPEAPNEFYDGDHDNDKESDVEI
T3 sequence (Q9Y618 whole entry, further chain, the tested form may be a part): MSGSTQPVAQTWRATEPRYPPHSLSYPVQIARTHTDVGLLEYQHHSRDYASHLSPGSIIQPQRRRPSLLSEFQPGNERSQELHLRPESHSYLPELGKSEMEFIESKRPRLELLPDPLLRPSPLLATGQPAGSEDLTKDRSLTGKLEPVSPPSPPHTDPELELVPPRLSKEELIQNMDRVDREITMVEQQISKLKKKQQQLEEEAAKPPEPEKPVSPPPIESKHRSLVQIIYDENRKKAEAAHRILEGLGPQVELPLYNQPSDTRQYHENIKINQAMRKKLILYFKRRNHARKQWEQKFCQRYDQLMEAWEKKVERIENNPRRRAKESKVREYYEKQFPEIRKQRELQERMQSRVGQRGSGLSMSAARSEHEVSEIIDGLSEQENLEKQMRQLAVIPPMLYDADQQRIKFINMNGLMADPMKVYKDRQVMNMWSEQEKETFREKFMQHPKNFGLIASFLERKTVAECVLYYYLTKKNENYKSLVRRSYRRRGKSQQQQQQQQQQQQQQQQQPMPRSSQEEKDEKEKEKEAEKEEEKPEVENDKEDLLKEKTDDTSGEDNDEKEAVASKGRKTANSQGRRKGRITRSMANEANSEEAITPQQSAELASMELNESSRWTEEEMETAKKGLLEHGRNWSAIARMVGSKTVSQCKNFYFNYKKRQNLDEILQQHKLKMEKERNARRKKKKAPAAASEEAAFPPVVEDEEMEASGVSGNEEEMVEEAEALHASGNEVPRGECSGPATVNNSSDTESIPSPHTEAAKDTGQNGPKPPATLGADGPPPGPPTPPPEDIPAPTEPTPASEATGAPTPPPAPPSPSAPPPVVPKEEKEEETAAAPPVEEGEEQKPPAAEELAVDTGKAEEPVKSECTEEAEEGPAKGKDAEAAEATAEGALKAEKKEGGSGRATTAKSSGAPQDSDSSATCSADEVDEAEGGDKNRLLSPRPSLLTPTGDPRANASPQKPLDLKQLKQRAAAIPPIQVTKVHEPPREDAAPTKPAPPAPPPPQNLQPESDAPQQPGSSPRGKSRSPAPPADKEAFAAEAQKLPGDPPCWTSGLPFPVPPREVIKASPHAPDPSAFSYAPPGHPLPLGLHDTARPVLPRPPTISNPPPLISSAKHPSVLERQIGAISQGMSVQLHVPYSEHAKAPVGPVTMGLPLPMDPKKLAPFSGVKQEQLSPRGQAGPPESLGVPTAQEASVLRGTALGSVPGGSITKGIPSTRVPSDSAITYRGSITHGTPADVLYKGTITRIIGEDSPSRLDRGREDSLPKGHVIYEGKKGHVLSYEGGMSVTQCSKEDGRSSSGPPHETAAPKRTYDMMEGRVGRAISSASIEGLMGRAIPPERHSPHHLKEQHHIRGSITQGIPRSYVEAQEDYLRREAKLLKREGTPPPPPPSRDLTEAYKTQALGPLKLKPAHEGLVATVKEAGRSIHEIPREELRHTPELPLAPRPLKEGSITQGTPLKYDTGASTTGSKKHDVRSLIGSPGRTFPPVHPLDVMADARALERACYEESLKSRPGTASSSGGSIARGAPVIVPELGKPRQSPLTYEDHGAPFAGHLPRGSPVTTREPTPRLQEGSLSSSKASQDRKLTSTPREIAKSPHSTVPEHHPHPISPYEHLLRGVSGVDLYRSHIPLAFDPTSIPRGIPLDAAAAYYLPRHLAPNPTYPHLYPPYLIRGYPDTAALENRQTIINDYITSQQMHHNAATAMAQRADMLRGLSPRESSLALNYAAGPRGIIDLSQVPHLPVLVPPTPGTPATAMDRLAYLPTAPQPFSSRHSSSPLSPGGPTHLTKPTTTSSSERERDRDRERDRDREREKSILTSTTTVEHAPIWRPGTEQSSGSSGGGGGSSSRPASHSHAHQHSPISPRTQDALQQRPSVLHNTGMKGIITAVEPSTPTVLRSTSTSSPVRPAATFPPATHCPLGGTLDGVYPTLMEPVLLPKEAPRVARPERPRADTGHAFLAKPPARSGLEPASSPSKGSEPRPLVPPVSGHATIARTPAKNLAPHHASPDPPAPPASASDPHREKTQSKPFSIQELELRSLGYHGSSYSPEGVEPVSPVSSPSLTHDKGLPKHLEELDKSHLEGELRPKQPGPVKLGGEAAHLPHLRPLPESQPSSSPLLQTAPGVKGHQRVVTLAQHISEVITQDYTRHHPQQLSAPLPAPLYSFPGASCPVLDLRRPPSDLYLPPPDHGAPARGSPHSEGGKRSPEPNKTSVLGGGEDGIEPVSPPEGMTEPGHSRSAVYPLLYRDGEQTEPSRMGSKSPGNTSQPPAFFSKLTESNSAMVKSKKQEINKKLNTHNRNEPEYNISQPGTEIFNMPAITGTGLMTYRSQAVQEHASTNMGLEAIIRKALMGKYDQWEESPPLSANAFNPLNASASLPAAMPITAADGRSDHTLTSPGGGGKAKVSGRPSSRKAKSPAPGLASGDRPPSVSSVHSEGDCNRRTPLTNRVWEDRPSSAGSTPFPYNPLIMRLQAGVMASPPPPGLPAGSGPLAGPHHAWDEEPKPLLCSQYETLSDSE
T2 sequence (Q92769 whole entry, the tested form may be a part): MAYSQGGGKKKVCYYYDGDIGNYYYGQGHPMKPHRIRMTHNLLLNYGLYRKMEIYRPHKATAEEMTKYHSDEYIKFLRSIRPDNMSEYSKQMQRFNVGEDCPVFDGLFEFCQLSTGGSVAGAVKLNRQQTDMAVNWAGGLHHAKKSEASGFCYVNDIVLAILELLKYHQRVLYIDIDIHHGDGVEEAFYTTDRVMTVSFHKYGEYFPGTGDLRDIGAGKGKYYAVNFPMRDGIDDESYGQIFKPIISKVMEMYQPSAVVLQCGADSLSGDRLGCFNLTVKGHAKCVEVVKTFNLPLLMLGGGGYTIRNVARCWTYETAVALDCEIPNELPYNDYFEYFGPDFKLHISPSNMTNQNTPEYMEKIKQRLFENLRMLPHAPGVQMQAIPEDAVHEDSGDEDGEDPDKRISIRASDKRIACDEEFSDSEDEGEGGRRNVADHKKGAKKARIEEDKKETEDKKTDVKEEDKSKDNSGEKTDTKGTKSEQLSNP

IC50 (Histone deacetylase 1 [1]) [nM]	IC50 (Histone deacetylase 2 [2]) [nM]	IC50 [3] [nM]	Compound	IC50 (Histone deacetylase 1 [4]) [nM]	Ratio IC50 (Homo sapiens)	IC50 (Histone deacetylase 2 [5]) [nM]	IC50 [6] [nM]
69	560	1300	C[C@H](CO)N1C[C@H](C)[C@H](CN(C)Cc2ccc(C(=O)Nc3ccccc3N)cc2)Oc2ccc(N(C)C)cc2CC1=O	–	–	–	–
–	–	–	O=C(/C=C(\CO)c1ccccc1)c1ccccc1	2740	20	170	50000
